From patent US10173999B2, “Cyclic amine derivative and pharmaceutical use thereof” (Toray Industries, Inc., priority 2015, dated 2019)
Structures can show the parent of a compound that is named as a salt.

Experiments:
[1] = system: mouse partial sciatic nerve ligation model (neuropathic pain); test: Mouse partial sciatic nerve ligation model (Seltzer model), von Frey test; format: in vivo; details: for persistence of analgesic action: oral administration, von Frey test at 1, 2, 3 h
Experimental: The mouse partial sciatic nerve ligation model was prepared in accordance with the method of Seltzer et al. (Malmberg et al., Pain, vol. 76, p. 215-222, 1998).
Slc: ICR mice (5 weeks old, male; from Japan SLC, Inc.) or Cr1: CD1 (ICR) mice (5 weeks old, male; from CHARLES RIVER LABORATORIES JAPAN, INC.) were anesthetized with sodium pentobarbital (70 mg/kg, intraperitoneal administration). The sciatic nerve at the femoral region of the right hind paw of each mouse was exposed and triply ligated tightly with silk suture of 8-0 (from NATSUME SEISAKUSHO CO., LTD.) under a stereomicroscope so that only half thickness of the nerve was trapped in the ligature. A group of mice thus treated was designated as a partial sciatic nerve ligation group. A group of mice whose sciatic nerve was just exposed and not ligated was designated as a sham surgery group.
Evaluation of neuropathic pain (hereinafter referred to as von Frey test) was performed as follows. Mice were conditioned for at least one hour in an acrylic cage for measurement (from NATSUME SEISAKUSHO CO. LTD. or SHINANO SEISAKUSHO) placed on a wire net. Thereafter, using a filament (from North Coast Medical or neuroscience) which exerted a pressure of 0.16 g, the mice were subjected to mechanical tactile stimulus by applying the filament to the plantar surface of the right hind paw 3 times, each for 3 seconds, with an interval of 3 seconds.
Seven days after the sciatic nerve ligation surgery, the compound of Example 1, 2, 3, 4, 5, 7, 8, 9, 10, 11, 12 or 13 (10 mg/kg for each of the compounds of Example 1, 2, 3, 4, 5, 8, 10 and 13, 0.01 to 1 mg/kg for the compound of Example 7, 0.01 to 10 mg/kg for the compound of Example 9; 0.001 to 0.1 mg/kg for the compound of Example 11; and 0.01 to 1 mg/kg for the compound of Example 12) or pregabalin as a positive control (10 mg/kg; Bosche Scientific) was dissolved in distilled water and orally administered to mice of the partial sciatic nerve ligation group. The groups of the mice in the partial sciatic nerve ligation mouse to which the compound of Example 1, 2, 3, 4, 5, 7, 8, 9, 10, 11, 12 or 13 was administered were designated as a “partial sciatic nerve ligation+the compound of Example 1” group; a “partial sciatic nerve ligation+the compound of Example 2” group; a “partial sciatic nerve ligation+the compound of Example 3” group; a “partial sciatic nerve ligation+the compound of Example 4” group; a “partial sciatic nerve ligation+the compound of Example 5” group; a “partial sciatic nerve ligation+the compound of Example 7” group; a “partial sciatic nerve ligation+the compound of Example 8” group; a “partial sciatic nerve ligation+the compound of Example 9” group; a “partial sciatic nerve ligation+the compound of Example 10” group; a “partial sciatic nerve ligation+the compound of Example 11” group; a “partial sciatic nerve ligation+the compound of Example 12” group; and a “partial sciatic nerve ligation+the compound of Example 13” group, respectively. The partial sciatic nerve ligation mouse group to which pregabalin was administered was designated as a “partial sciatic nerve ligation+pregabalin” group. A group wherein distilled water was orally administered to the mice of the partial sciatic nerve ligation group was designated as a “partial sciatic nerve ligation+distilled water” group. A group wherein distilled water was orally administered to the mice of the sham surgery group was designated as a “sham surgery+distilled water” group.
The von Frey test was carried out before oral administration of a test compound (pre-value), one hour, two hours, and three hours after the oral administration of a test compound.
Slc: ICR mice (5 weeks old, male; Japan SLC, Inc.) were anesthetized with sodium pentobarbital (70 mg/kg, intraperitoneal administration).

[2] = system: human aortic smooth muscle cells (T/G HA-VSMG); test: Inducibility of cytoplasmic vacuolation in human aortic smooth muscle cells; format: cell-based; details: Treatment time: 24 hours
Experimental: As a test compound, the compound of Example 3, 9, 11, 12 or compounds of Comparative Examples 2 to 6 were used. Canine aortic smooth muscle cells (Canine Aortic Smooth Muscle Cells, supply source: Toyobo Co., Ltd.) or human aortic smooth muscle cells of (T/G HA-VSMG, supply source: ATCC) were treated with a test compound (1.0 or 1.2 mmol/L in concentration) for 24 hours or 2 weeks. The cells were stained with HE, immunohistochemically for LAMP-2 or toluidine blue, and thereafter the presence or absence of cytoplasmic vacuolation was determined by using an optical microscope.

[3] = system: fibromyalgia syndrome model rats; test: Rat fibromyalgia syndrome model (acidic saline), allodynia by von Frey filament; format: in vivo; details: Day 7, pregabalin 10 mg/kg
Experimental: To prepare a fibromyalgia syndrome model rat (Sluka et al., Journal of Pharmacology and Experimental Therapeutics, vol. 302, p. 1146-1150, 2002; Nagakura et al., Pain, vol. 146, p. 26-33, 2009; Sluka et al., Pain, vol. 146, p. 3-4, 2009), which is generally employed widely in basic research for fibromyalgia syndrome, acidic saline (100 μL) adjusted to pH 4.0 was intramuscularly injected to the gastrocnemius muscle of the right hind paw of Crl: CD(SD) rat (6 to 7 weeks old, male; from CHARLES RIVER LABORATORIES JAPAN, INC.) under continuous inhalation anesthesia with isoflurane, twice (once in each day of Day 1 and Day 6, wherein Day 1 was the date on which the acidic saline was initially administrated). The rats thus prepared were raised in a breeding room controlled at an indoor temperature of 21 to 25° C. and an indoor humidity of 40 to 70% under the conditions of voluntary intake of food and water. In the same manner, rats to which physiological saline in place of acidic saline was intramuscularly injected were raised. The rats thus raised and not afflicted with fibromyalgia syndrome (“physiological saline+distilled water” group in FIG. 13) were also used in the experiment.
Seven days after the initial administration of acidic saline, allodynia in each rat was measured. […] Note that, measurement of allodynia was performed by use of a von Frey filament (from North Coast Medical) in accordance with the method described in a known literature (Chaplan et al., Journal of Neuroscience Methods, vol. 53, p. 55-63, 1994).
The fibromyalgia syndrome model rats thus obtained are divided into groups such that the 50% response threshold (mean value of the right hind paw and the left hind paw) of the individual groups became equal, and a test compound was administered to the fibromyalgia syndrome model rats on Day 7 after the initial administration of acidic saline.
The compound of Example 11 (0.1 to 10 mg/kg) was dissolved in distilled water and then orally administered to fibromyalgia syndrome model rats (“acidic saline+the compound of Example 11” in FIG. 13). Pregabalin serving as a positive control (10 mg/kg; from KEMPROTEC) was dissolved in distilled water and then orally administered (“acidic saline+pregabalin” in FIG. 13). As a control, distilled water was orally administered to fibromyalgia syndrome model rats (“acidic saline+distilled water” in FIG. 13). Furthermore, distilled water was orally administered to rats not afflicted with fibromyalgia syndrome (“physiological saline+distilled water” in FIG. 13). One hour and three hours after the oral administration, allodynia in individual rats was measured to evaluate an analgesic action. At this time, the 50% response threshold value in the measurement of allodynia before oral administration of the test compound on Day 7 after initial administration of acidic saline was defined as the pre-value.
To prepare a fibromyalgia syndrome model rat (Sluka et al., Journal of Pharmacology and Experimental Therapeutics, vol. 302, p. 1146-50, 2002; Nagakura et al., Pain, vol. 146, p. 26-33, 2009; Sluka et al., Pain, vol. 146, p. 3-4, 2009), which is generally employed widely in basic research for fibromyalgia syndrome, acidic saline (100 μL) adjusted to pH 4.0 was intramuscularly injected to the gastrocnemius muscle of the right hind paw of Slc: (SD) rats (6 to 7 weeks old, male; from Japan SLC, Inc.) under continuous inhalation anesthesia with isoflurane, twice (once in each of Day 1 and Day 6, wherein Day 1 was the initial administration date of the acidic saline). The rats thus prepared were raised in a breeding room controlled at an indoor temperature of 21 to 25° C. and an indoor humidity of 40 to 70% under the conditions of voluntary intake of food and water. In the same manner, rats to which physiological saline was intramuscularly injected in place of acidic saline were raised. […]

[4] = oral, 7 days after ligation, 1-3 h after dosing, 10 mg/kg (Ex 1,2,3,4,5,8,10,13, pregabalin), 0.01-1 mg/kg (Ex 7,12), 0.01-10 mg/kg (Ex 9), 0.001-0.1 mg/kg (Ex 11), vs ligation+distilled water, Welch or Shirley-Williams test

Structure (SMILES)	analgesic action in von Frey test (total score) [1, 4]	further results
CCN(C)C1CCN(C(=O)CC(O)c2nccn2C)CC1 (centres unmarked) [Example 1, 1-(4-(ethylmethylamino)piperidin-1-yl)-3-hydroxy-3-(1-methyl-1H-imidazol-2-yl)propan-1-one]	statistically significant analgesic action	
CCN(CC)C1CCN(C(=O)CC(O)c2nccn2C)CC1 (centres unmarked) [Example 2, 1-(4-(diethylamino)piperidin-1-yl)-3-hydroxy-3-(1-methyl-1H-imidazol-2-yl)propan-1-one]	statistically significant analgesic action	
CN1CCN(C2CCN(C(=O)CC(O)c3nccn3C)CC2)CC1 (centres unmarked) [Example 3, 3-hydroxy-3-(1-methyl-1H-imidazol-2-yl)-1-(4-(4-methylpiperazin-1-yl)piperidin-1-yl)propan-1-one]	statistically significant analgesic action	Inducibility of cytoplasmic vacuolation ([2]; Concentration: 1.2 mmol/L): Absent
CN(C)[C@@H]1CCCN(C(=O)CC(O)c2nccn2C)C1 (some centres unmarked) [Example 4]	statistically significant analgesic action	
CN(C)[C@@H]1CCN(C(=O)CC(O)c2nccn2C)C1 (stereo partly drawn) [Example 5, 1-((R)-3-(dimethylamino)pyrrolidin-1-yl)-3-hydroxy-3-(1-methyl-1H-imidazol-2-yl)propan-1-one]	statistically significant analgesic action	
CN(C)C1CCN(C(=O)CC(O)c2nccn2C)CC1 (centres unmarked) [Example 7, 1-(4-(dimethylamino)piperidin-1-yl)-3-hydroxy-3-(1-methyl-1H-imidazol-2-yl)propan-1-one hydrochloride]		analgesic action in von Frey test (total score) ([1]; mouse, in vivo): statistically significant analgesic action; persistence of analgesic action [1]: persistence of analgesic action was confirmed
CCn1ccnc1C(O)CC(=O)N1CCC(N(C)C)CC1 (centres unmarked) [Example 8, 1-(4-(dimethylamino)piperidin-1-yl)-3-(1-ethyl-1H-imidazol-2-yl)-3-hydroxypropan-1-one]	statistically significant analgesic action	
CN(C)C1CCN(C(=O)CC(O)c2nccn2CC(F)(F)F)CC1 (centres unmarked) [Example 9, 1-(4-(dimethylamino)piperidin-1-yl)-3-hydroxy-3-(1-(2,2,2-trifluoroethyl)-1H-imidazol-2-yl)propan-1-one]	statistically significant analgesic action	persistence of analgesic action [1]: persistence of analgesic action was confirmed; Inducibility of cytoplasmic vacuolation ([2]; Concentration: 1.2 mmol/L): Absent
CN(C)C1CCN(C(=O)CC(O)c2nccn2C(F)F)CC1 (centres unmarked) [Example 10, 3-(1-(difluoromethyl)-1H-imidazol-2-yl)-1-(4-(dimethylamino)piperidin-1-yl)-3-hydroxypropan-1-one]	statistically significant analgesic action	
CC(=O)OC(CC(=O)N1CCC(N(C)C)CC1)c1nccn1C (centres unmarked) [Example 12, 3-(4-(dimethylamino)piperidin-1-yl)-1-(1-methyl-1H-imidazol-2-yl)-3-oxopropyl acetate]	statistically significant analgesic action	persistence of analgesic action [1]: persistence of analgesic action was confirmed; Inducibility of cytoplasmic vacuolation ([2]; Concentration: 1.0 mmol/L): Absent
CCCCC(=O)OC(CC(=O)N1CCC(N(C)C)CC1)c1nccn1C (centres unmarked) [Example 13, 3-(4-(dimethylamino)piperidin-1-yl)-1-(1-methyl-1H-imidazol-2-yl)-3-oxopropylpentanoate]	statistically significant analgesic action	
CC(C)C[C@H](CN)CC(=O)O [pregabalin]		analgesic action in von Frey test (total score) ([1]; mouse, in vivo): statistically significant analgesic action; allodynia (50% response threshold) vs acidic saline+distilled water group ([3]; Comparative Example 8: oral, Comparative Example 1 0.1 to 1 mg/kg, 1, 2 and 3 h after dosing): statistically significantly improved; allodynia (50% response threshold) vs acidic saline+distilled water group ([3]; Example 15: oral, Example 11 0.1 to 10 mg/kg, 1 and 3 h after dosing): statistically significantly improved
